Measured values: ChEMBL document CHEMBL3861964, “Bioassay-Guided Isolation of Prenylated Xanthone Derivatives from the Leaves of Garcinia oligantha” (J Nat Prod, 2016)
pIC50: −log10 of the molar value.

Key:
[1] = Cytotoxicity against human A549 cells assessed as reduction in cell viability after 72 hrs by MTT assay; assay type: functional, cell-based; conditions: A549, 72 h
[2] = Cytotoxicity against human HepG2 cells assessed as reduction in cell viability after 72 hrs by MTT assay; assay type: functional, cell-based; conditions: HepG2, 72 h
[3] = Cytotoxicity against human PC3 cells assessed as reduction in cell viability after 72 hrs by MTT assay; assay type: functional, cell-based; conditions: PC-3, 72 h
[4] = Cytotoxicity against human HL-7702 cells assessed as reduction in cell viability after 72 hrs by MTT assay; assay type: toxicity, cell-based, L02
cells = conditions: Homo sapiens, HT-29, 72 h
Description: Cytotoxicity against human HT-29 cells assessed as reduction in cell viability after 72 hrs by MTT assay

| Compound | pIC50 (cells) | pIC50 [1] | pIC50 [2] | pIC50 [3] | IC50 at 72 h [4] |
| --- | --- | --- | --- | --- | --- |
| C=C(C)[C@H]1C[C@](C/C=C(\C)CCC=C(C)C)(C(=O)O)c2c(oc3c(CC=C(C)C)c(O)cc(O)c3c2=O)[C@@H]1O | < 5.00 | < 5.00 | < 5.00 | < 5.00 | – |
| CC(C)=CCC1(CC=C(C)C)C(=O)C(O)=C(O)c2oc3c4c(cc(O)c3c(=O)c21)OC(C)(C)C=C4 | 5.39 | 5.26 | 5.21 | 5.49 | 6.4 µM |
| CO[C@]12C=C3C(=O)c4c(O)cc(O)c(CC=C(C)C)c4O[C@]34C(C1)C(C)(C)O[C@]4(CC=C(C)C)C2=O | 5.66 | 5.52 | 5.55 | 5.68 | 2.5 µM |
| CC(C)=CCc1c(O)cc(O)c2c(=O)c3c(oc12)C(CC=C(C)C)(CC=C(C)C)C(=O)C(O)=C3 | < 5.00 | < 5.00 | < 5.00 | < 5.00 | – |
| CC(C)=CCC1(C(=O)O)CC(=C(C)C)C(=O)c2oc3c4c(cc(O)c3c(=O)c21)OC(C)(C)C=C4 (racemic) | < 5.00 | < 5.00 | < 5.00 | < 5.00 | – |
| CC(=O)O[C@H]1C(=O)[C@@]2(C)[C@H]([C@H](OC(=O)c3ccccc3)[C@]3(O)C[C@H](OC(=O)[C@H](O)[C@@H](NC(=O)c4ccccc4)c4ccccc4)C(C)=C1C3(C)C)[C@]1(OC(C)=O)CO[C@@H]1C[C@@H]2O [PACLITAXEL] | – | 7.10 | 6.70 | 7.52 | 0.06 µM |

Further lines, with some results ahead:

| pIC50 (cells) | Compound | pIC50 [1] | pIC50 [2] | pIC50 [3] | IC50 at 72 h [4] |
| --- | --- | --- | --- | --- | --- |
| 5.64 | CO[C@]12C=C3C(=O)c4c(O)c(CC=C(C)C)c(O)c(CC=C(C)C)c4O[C@]34C(C1)C(C)(C)O[C@]4(CC=C(C)C)C2=O | 5.54 | 5.54 | 5.64 | 3.1 µM |
| < 5.00 | CC(C)=CCC1=C(O)C(=O)C(CC=C(C)C)(CC=C(C)C)c2c1oc1cc(O)cc(O)c1c2=O | < 5.00 | < 5.00 | < 5.00 | – |
| < 5.00 | CC(C)=CCC/C(C)=C/C[C@]1(C(=O)O)CC(=C(C)C)C(=O)c2oc3c(CC=C(C)C)c(O)cc(O)c3c(=O)c21 | < 5.00 | < 5.00 | < 5.00 | – |
| < 5.00 | CC(C)=CCc1cc(C(C)C)c(O)c2oc3c4c(cc(O)c3c(=O)c12)OC(C)(C)C=C4 | < 5.00 | < 5.00 | < 5.00 | – |
| 5.19 | CC(C)=CCC/C(C)=C/C[C@@]1(CC=C(C)C)C(=O)C(O)=C(O)c2oc3c4c(cc(O)c3c(=O)c21)OC(C)(C)C=C4 | 5.30 | < 5.00 | 5.23 | > 10 µM |
| < 5.00 | CC(C)=CCc1c(O)c(O)c(O)c2oc3c4c(cc(O)c3c(=O)c12)OC(C)(C)C=C4 | < 5.00 | < 5.00 | < 5.00 | – |
| 5.32 | CO[C@@]12C=C3C(=O)c4c(O)cc5c(c4O[C@@]34[C@@H]1C(C)(C)O[C@@]4(CC=C(C)C)C2=O)C=CC(C)(C)O5 | 5.41 | 5.35 | 5.34 | 8.6 µM |
